Data from patent US6670383B2, “Pyranocoumarin compounds as a novel pharmacophore with anti-TB activity” (priority 2001, dated 2003).
In brackets after ≈: the same amount, converted by molar mass. Several values for one entry are separate records, joined by “and”; a condition that tells them apart may be missing. Identical values can stand only once. Counter-ions that a name gives are not always drawn. Like-named read-outs stand apart in the source and are kept apart here.

How the values were obtained:
M. tuberculosis H37Ra [1] = test: MIC and MBC determination using 2-fold dilutions; assay type: cell-based; details: for MIC / MBC: Mycobacterium tuberculosis
M. tuberculosis H37Ra [2] = test: colorimetric microdilution broth assay with alamar Blue, initial screen at four log10 dilutions; assay type: cell-based; details: Mycobacterium tuberculosis, H37RA, initial screening at 0.128, 1.28, 12.8 and 128 μg/mL, read-out: MIC
Experimental: The compounds synthesized above were evaluated for activity against M. tuberculosis H37Ra using a colorimetric microdilution broth assay that incorporated the REDOX indicator alamar Blue, which indicates the growth and viability by the metabolic reduction of the dye from blue to red^18.
In an initial screen, the compounds were assayed in duplicate at four log10 dilutions, with the highest concentration being 128 μg/mL (therefore, tested concentrations were 0.128, 1.28, 12.8, and 128 μg/mL). Each solubilized test compound was diluted in broth medium (Middlebrook 7H9+ADC enrichment+0.2% glycerol) at twice the desired concentration and 0.05 mL of each dilution then added to appropriate wells in duplicate in a 96 well (U-shaped) microtiter plates. A plate format was designed for up to seven (7) compounds per plate. Each plate also included uninoculated drug controls, viability controls, uninoculated medium controls, and positive drug controls. The inoculum for each well consisted of 0.05 mL of culture, standardized as described above to provide an inoculum in each microtiter well of approximately 10^5 CFU/mL. The plates were covered with a lid, placed in polyethylene bags and incubated for at 37° C. for 6 days. At that time, alamar Blue, diluted in Tween 80, was added to each well followed by further incubation for about 20 hours. The plates were read in an optical microplate reader programmed to subtract absorbance at 600 nm from absorbance at 570 nm. This effectively blanked out turbidity and absorbance due to oxidized dye. The amount of dye reduced, resulting in a change from blue to red, is indicative of drug yielding a differential absorption of zero or less.

[3] = test system: M. tuberculosis' synthesis of protein, RNA, DNA and lipid; test: incorporation of radiolabeled precursors into mycobacterial macromolecular components; assay type: cell-based
[4] = test system: M. tuberculosis strain H37Rv; test: MIC against strains of Table 1; assay type: cell-based
TB = details: in vivo; cited from earlier work
[5] = test system: M. tuberculosis strain Erdman (TMCC 107/ATCC 35801); test: bone marrow-derived murine macrophage model, BC99; assay type: cell-based
M. tuberculosis = details: first line anti-TB drugs, for comparison; cited from earlier work
[6] = test system: M. tuberculosis strain H37Ra; test: MIC against strains of Table 1; assay type: cell-based
[7] = test system: H37Rv strain of M. tuberculosis; test: BACTEC 460 radiometric system in BACTEC 12B medium: inhibition and MIC; assay type: cell-based; details: for % Inhibition: 12.5 μg/mL; for MIC: lowest concentration inhibiting 99% of the inoculum
[8] = test system: M. tuberculosis strain CSU 93 (CDC-95-031551); test: bone marrow-derived murine macrophage model, BC99; assay type: cell-based; details: concentration at which 99% of the inoculum is destroyed
Experimental: (§1) For comparison, MICs for the first line anti-TB drugs are 0.025-0.05 μg/mL for isoniazid, 0.005-0.2 μg/mL for rifampin, and 0.4-10 μg/mL for ethambutol. However, in a bone marrow-derived murine macrophage model, the BC 99 value of (+)-calanolide A, a concentration at which 99% of the inoculum of M. tuberculosis is destroyed, was 1.1 μg/mL (3 μM) against strain Erdman (TMCC 107/ATCC 35801) and 1.8 μg/mL (5 μM) against strain CSU 93 (CDC-95-031551), compared to 0.7-0.8 μg/mL (5-6 μM) for the positive control drug isoniazide.

M. avium = test: inhibition of M. avium; assay type: cell-based; details: 12.5 μg/mL
Experimental: as §1

[9] = IC50 of Table 2 (used for SI = IC50/MIC; test not described)
[10] = 2-fold dilutions, lowest concentration that completely inhibits growth, H37Ra, read-out: MIC
[11] = minimum bactericidal concentration, H37Ra, read-out: MBC
[12] = Mycobacterium tuberculosis, read-out: MIC

## CCCc1cc(=O)oc2c3c(c4c(c12)OC(C)(C)C=C4)O[C@H](C)[C@@H](C)C3N (stereo partly drawn) [Compound 22]
M. tuberculosis H37Ra [1]
  effect on M. tuberculosis: bactericidal
M. tuberculosis H37Ra [1]; [10]
  MIC: 16 µg/mL (≈ 43.3 µM)
M. tuberculosis H37Ra [1]; [11]
  MBC: 32 µg/mL (≈ 86.6 µM)
M. tuberculosis H37Ra [2]
  MIC: 1.28 to 12.8 µg/mL (≈ 3.46 to 34.6 µM)

## CCCc1cc(=O)oc2c(C(N)CC)c(OC(C)C)cc(OC(C)C)c12 (stereo not drawn) [Compound 26c, 8-(1-Aminopropyl)-5,7-diisopropoxy-4-propyl-chromen-2-one, hydrochloride]
M. tuberculosis H37Ra [1]
  effect on M. tuberculosis: bactericidal
M. tuberculosis H37Ra [1]; [10]
  MIC: 16 µg/mL
M. tuberculosis H37Ra [1]; [11]
  MBC: 64 µg/mL
M. tuberculosis H37Ra [2]
  MIC: 1.28 to 12.8 µg/mL

## [H]/N=C(/N)N[C@H]1[C@H](O)[C@@H](O)[C@H](O[C@@H]2O[C@@H](C)[C@](O)(C=O)[C@H]2O[C@@H]2O[C@@H](CO)[C@H](O)[C@@H](O)[C@@H]2NC)[C@@H](N/C(N)=N\[H])[C@@H]1O [Streptomycin]
[3]; positive control, at 5 hours
  inhibition of protein synthesis: 43%
[4]; [12]
  MIC: 0.25 µg/mL (≈ 0.43 µM)

## C=CCOc1cc2c(c3oc(=O)cc(CCC)c13)C(O)C(C)C(C)O2 (stereo not drawn) [cis-17c, 5-(Allyloxy)-10-hydroxy-8,9-dimethyl-4-propyl-9,10-dihydro-8H-pyrano[2,3-f]chromen-2-one]
M. tuberculosis H37Ra [1]
  effect on M. tuberculosis: bactericidal
M. tuberculosis H37Ra [1]; H37RA
  MBC: 64 µg/mL (≈ 186 µM)
  MIC: 16 µg/mL (≈ 46.5 µM)

## CO[C@H]1/C=C/O[C@@]2(C)Oc3c(C)c(O)c4c(O)c(c(/C=N/N5CCN(C6CCCC6)CC5)c(O)c4c3C2=O)NC(=O)/C(C)=C\C=C\[C@H](C)[C@H](O)[C@@H](C)[C@@H](O)[C@@H](C)[C@H](OC(C)=O)[C@@H]1C [rifapentine]
TB
  TB relapse rate: 10%

## NNC(=O)c1ccncc1 [Isoniazid]
[5]; positive control, one range printed for strains Erdman and CSU 93, listed as isoniazide
  BC 99: 0.7-0.8 μg/mL and 5-6 μM
M. tuberculosis
  MIC: 0.025 to 0.05 µg/mL
[4]; [12]
  MIC: 0.031 µg/mL (≈ 0.226 µM)
[6]; [12]
  MIC: 0.063 µg/mL (≈ 0.459 µM)

## (+)-Calanolide A [(+)-Calanolide A (1)]
[7]
  % Inhibition: 96%
  MIC: 3.13 µg/mL
[7]; listed as (+)-calanolide A
  % Inhibition: greater than 96%
  MIC: 3.13 μg/mL and 8 μM
[8]
  BC 99: 1.8 μg/mL and 5 μM
[5]; concentration at which 99% of the inoculum is destroyed, strain Erdman
  BC 99: 1.1 μg/mL and 3 μM
[5]; macrophage model
  kind of agent from drug inhibition patterns: bactericidal agent
M. avium
  % Inhibition: 81%
[3]
  inhibition of RNA synthesis, extent and time frame: very similar to the positive control rifampin
  inhibition of protein synthesis: 32%
[3]; […], 12-hour time point, DMSO alone 51%
  inhibition of lipid synthesis: 99%
[3]; […], period of 3 hours, DMSO alone 24%
  inhibition of DNA synthesis: Approximately 77%
[4]
  MIC: 8 µg/mL
[9]
  IC50: 7.60 µg/mL
[6]
  MIC: 16 µg/mL

## CCCc1cc(=O)oc2c(C(N)CC)c(OCCO)c3c(c12)OC(C)(C)C=C3 (stereo not drawn) [Compound 45e, 6-(1-Aminopropyl)-5-(2-hydroxyethoxy)-2,2-dimethyl-10-propyl-2H-pyrano[2,3-f]chromen-8-one]
M. tuberculosis H37Ra [1]
  effect on M. tuberculosis: bactericidal
M. tuberculosis H37Ra [1]; H37RA
  MBC: 32 µg/mL (≈ 82.6 µM)
  MIC: 16 µg/mL (≈ 41.3 µM)
M. tuberculosis H37Ra [2]
  MIC: 1.28 to 12.8 µg/mL (≈ 3.3 to 33 µM)

## CCCc1cc(=O)oc2c(C(=O)CC)c(OC)c3c(c12)OC(C)(C)CC3 [Compound 44b, 5-Methoxy-2,2-dimethyl-6-propionyl-10-propyl-3,4-dihydro-2H-pyrano[2,3-f]chromen-8-one]
M. tuberculosis H37Ra [1]; [10]
  MIC: 16 µg/mL (≈ 44.6 µM)
M. tuberculosis H37Ra [1]; [11]
  MBC: > 64 µg/mL
M. tuberculosis H37Ra [2]
  MIC: 1.28 to 12.8 µg/mL (≈ 3.57 to 35.7 µM)

## C=CC(C)Oc1cc2c(c3oc(=O)cc(CCC)c13)C(O)C(C)C(C)O2 (stereo not drawn) [cis-17f, 5-(1-Methylallyloxy)-10-hydroxy-8,9-dimethyl-4-propyl-9,10-dihydro-8H-pyrano[2,3-f]chromen-2-one]
M. tuberculosis H37Ra [1]; [10]
  MIC: 16 µg/mL (≈ 44.6 µM)
M. tuberculosis H37Ra [1]; [11]
  MBC: > 64 µg/mL

## C=CCOc1cc(OCC=C)c2c(CCC)cc(=O)oc2c1C(O)CC (stereo not drawn) [Compound 21d, 5,7-Bis-allyloxy-8-(1-hydroxy-propyl)-4-propyl-chromen-2-one]
M. tuberculosis H37Ra [1]; [10]
  MIC: 16 µg/mL (≈ 44.6 µM)
M. tuberculosis H37Ra [1]; [11]
  MBC: > 64 µg/mL
M. tuberculosis H37Ra [2]
  MIC: 1.28 to 12.8 µg/mL (≈ 3.57 to 35.7 µM)

## CC[C@@H](CO)NCCN[C@@H](CC)CO [Ethambutol]
M. tuberculosis
  MIC: 0.4 to 10 µg/mL
[4]; [12]
  MIC: 2 µg/mL (≈ 9.79 µM)
[6]; [12]
  MIC: 4 µg/mL (≈ 19.6 µM)

## CO[C@H]1/C=C/O[C@@]2(C)Oc3c(C)c(O)c4c(O)c(c(/C=N/N5CCN(C)CC5)c(O)c4c3C2=O)NC(=O)/C(C)=C\C=C\[C@H](C)[C@H](O)[C@@H](C)[C@@H](O)[C@@H](C)[C@H](OC(C)=O)[C@@H]1C [Rifampin]
M. tuberculosis
  MIC: 0.005 to 0.2 µg/mL
[4]; [12]
  MIC: 0.016 µg/mL (≈ 0.0194 µM)
TB
  TB relapse rate: 5%

## CCCc1cc(=O)oc2c3c(c4c(c12)OC(C)(C)C=C4)O[C@@H](C)[C@H](C)[C@H]3O [(−)-Calanolide A (2), (−)-Calanolide A]
[7]
  % Inhibition: 98%
  MIC: 6.25 µg/mL (≈ 16.9 µM)
[9]
  IC50: >10 µg/mL
